Patent US10981879B2, “Thioether triazolopyridine and triazolopyrimidine inhibitors of myeloperoxidase” (BRISTOL-MYERS SQUIBB COMPANY, priority 2014, dated 2021)

What follows are molecules tested against myeloperoxidase (MPO) (Homo sapiens (Human), UniProt P05164) (assay: MPO chlorination assay (APF)). Conditions: MPO chlorination assay, ranges given; read-out: MPO chlorination assay IC50.
Type: biochemical
Experimental: MPO chlorination activity was measured in 100 mM KPi (pH 7.4) by utilizing the non-fluorescent reagent Aminophenyl fluorescein (APF, Invitrogen catalog #A36003). APF is cleaved by (—OCl) to yield the fluorescent compound fluorescein. Reactions were carried out in 50 μL total volume by adding a 25 μL mixture of 200 pM myeloperoxidase and 120 mM NaCl to 100 nL inhibitor in 100% DMSO in a 384 well, non-binding surface clear bottom plate (CORNING® #3655). Enzyme, inhibitor, and chloride were preincubated for ten minutes at rt.
After the ten minute preincubation, 25 μL of an APF mixture containing […], 120 mM NaCl and 10 μM H2O2 was added to the plate using the internal dispensing system of a Hammatsu FDSS 6000. Kinetic determinations were carried out immediately on the FDSS 6000 (3 minute kinetic read, 1 read every second, ex: 485 nm, em: 535 nm). IC50 values for inhibitors were calculated by taking the slope of the linear portion of the kinetic measurement (20 seconds to ˜80-120 secs). […]
[formula] where A=minimal Y value (activity level of inhibited sample), B=maximal Y value (activity level of uninhibited sample), C=Log IC50, D=Hill Slope, x=concentration of inhibitor. EPX Bromination Assay

myeloperoxidase (MPO), sequence (P05164 49-745): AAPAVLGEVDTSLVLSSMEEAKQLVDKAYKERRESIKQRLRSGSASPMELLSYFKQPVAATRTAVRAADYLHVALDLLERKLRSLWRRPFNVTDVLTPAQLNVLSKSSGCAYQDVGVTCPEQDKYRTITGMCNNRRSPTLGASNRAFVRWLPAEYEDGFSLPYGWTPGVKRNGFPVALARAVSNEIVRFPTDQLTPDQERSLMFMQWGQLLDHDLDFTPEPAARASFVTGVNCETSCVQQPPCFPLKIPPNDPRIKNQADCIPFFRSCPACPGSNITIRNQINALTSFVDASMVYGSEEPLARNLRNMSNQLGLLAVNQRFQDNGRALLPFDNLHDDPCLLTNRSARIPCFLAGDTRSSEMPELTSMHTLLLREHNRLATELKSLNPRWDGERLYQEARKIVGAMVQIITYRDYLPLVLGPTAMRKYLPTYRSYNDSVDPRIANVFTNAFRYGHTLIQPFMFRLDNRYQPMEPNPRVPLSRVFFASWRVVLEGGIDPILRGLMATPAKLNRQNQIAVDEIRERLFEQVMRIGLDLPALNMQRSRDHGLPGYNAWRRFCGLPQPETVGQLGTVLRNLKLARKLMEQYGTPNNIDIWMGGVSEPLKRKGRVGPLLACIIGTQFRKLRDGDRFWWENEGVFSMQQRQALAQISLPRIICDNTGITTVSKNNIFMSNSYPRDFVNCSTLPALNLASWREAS

| Compound | IC50 [nM] |
| --- | --- |
| Nc1cc(SCc2cn(-c3ccccn3)nc2C(F)(F)F)c2nn[nH]c2n1 [Example 135, 7-(((1-(pyridin-2-y1)-3-(trifluoromethyl)-1H-pyrazol-4-yl)methyl)thio)-3H-[1,2,3] triazolo[4,5-b]pyridin-5-amine] | ≤ 60 |
| N#Cc1cc(Cl)ccc1CSc1cc(N)nc2[nH]nnc12 [Example 74, 2-(((5-amino-3H-[1,2,3]triazolo[4,5-b]pyridin-7-yl)thio)methyl)-5-chlorobenzonitrile] | ≤ 60 |
| N#Cc1cc(Br)ccc1CSc1cc(N)nc2[nH]nnc12 [Example 21, 2-(((5-amino-3H-[1,2,3]triazolo[4,5-b]pyridin-7-yl)thio)methyl)-5-bromobenzonitrile] | 60 to 200 |
| N#Cc1cccc(CSc2cc(N)nc3[nH]nnc23)c1 [Example 91, 3-(((5-amino-3H-[1,2,3]triazolo[4,5-b]pyridin-7-yl)thio)methyl)benzonitrile] | ≤ 60 |
| Nc1cc(SCc2cn(-c3ccccc3)nn2)c2nn[nH]c2n1 [Example 34, 7-(((1-phenyl-1H-1,2,3-triazol-4-yl)methyl)thio)-3H-[1,2,3]triazolo[4,5-b]pyridin-5-amine] | 60 to 200 |
| N#Cc1ccc(OC(F)F)cc1CSc1cc(N)nc2[nH]nnc12 [Example 109] | ≤ 60 |
| Cc1nn(C)c(Cl)c1CSc1cc(N)nc2[nH]nnc12 [Example 60, 7-(((5-chloro-1,3-dimethyl-1H-pyrazol-4-yl)methyl)thio)-3H-[1,2,3]triazolo[4,5-b]pyridin-5-amine] | ≤ 60 |
| Cn1nc(-c2ccccc2)c(F)c1CSc1cc(N)nc2[nH]nnc12 [Example 17, 7-(((4-Fluoro-1-methyl-3-phenyl-1H-pyrazol-5-yl)methyl)thio)-3H-[1,2,3]triazolo[4,5-b]pyridin-5-amine] | ≤ 60 |
| Nc1cc(SCc2cccc(F)c2)c2nn[nH]c2n1 [Example 6, 7-((3-fluorobenzyl)thio)-3H-[1,2,3]triazolo [4,5-b]pyridin-5-amine] | ≤ 60 |
| Nc1cc(SCc2c(F)cccc2F)c2nn[nH]c2n1 [Example 10, 7-((2,6-Difluorobenzyl)thio)-3H-[1,2,3]triazolo[4,5-b]pyridin-5-amine] | ≤ 60 |
| CS(=O)(=O)c1cc(Cl)ccc1CSc1cc(N)nc2[nH]nnc12 [Example 18, 7-((4-chloro-2-(methylsulfonyl)benzyl)thio)-3H-[1,2,3]triazolo[4,5-b]pyridin-5-amine] | ≤ 60 |
| Cn1nc(C2CC2)c(F)c1CSc1cc(N)nc2[nH]nnc12 [Example 16, 7-(((3-Cyclopropyl-4-fluoro-1-methyl-1H-pyrazol-5-yl)methyl)thio)-3H-[1,2,3]triazolo[4,5-b]pyridin-5-amine] | 60 to 200 |
| Cn1nc(-c2ccccc2)c(Cl)c1CSc1cc(N)nc2[nH]nnc12 [Example 112, 7-(((4-chloro-1-methyl-3-phenyl-1H-pyrazol-5-yl)methyl)thio)-3H-[1,2,3] triazolo[4,5-b]pyridin-5-amine] | ≤ 60 |
| Nc1cc(SCc2cccc(CN3CCCC3)c2)c2nn[nH]c2n1 [Example 15, 7-((3-(Pyrrolidin-1-ylmethyl)benzyl)thio)-3H-[1,2,3]triazolo[4,5-b]pyridin-5-amine] | ≤ 60 |
| Nc1cc(SCc2cccc3cccnc23)c2nn[nH]c2n1 [Example 125, 7-((quinolin-8-ylmethyl)thio)-3H-[1,2,3] triazolo[4,5-b]pyridin-5-amine] | ≤ 60 |
| Nc1cc(SC(c2ccccc2)C(F)(F)F)c2nn[nH]c2n1 (stereo not shown) [Example 38, 7-((2,2,2-trifluoro-1-phenylethyl)thio)-3H-[1,2,3] triazolo[4,5-b]pyridin-5-amine] | 200 to 1000 |
| Nc1cc(SCc2c(F)cc(Cl)cc2F)c2nn[nH]c2n1 [Example 23, 7-((4-chloro-2,6-difluorobenzyl)thio)-3H-[1,2,3]triazolo[4,5-b]pyridin-5-amine] | ≤ 60 |
| Nc1cc(SCc2cn(-c3cccnc3)nc2C(F)(F)F)c2nn[nH]c2n1 [Example 136] | ≤ 60 |
| COC(=O)c1ncccc1CSc1cc(N)nc2[nH]nnc12 [Example 26, methyl 3-(((5-amino-3H-[1,2,3]triazolo[4,5-b]pyridin-7-yl)thio)methyl)picolinate] | 200 to 1000 |

Further lines, results first:

| IC50 [nM] | Compound |
| --- | --- |
| 200 to 1000 | NC(=O)c1ccc(CSc2cc(N)nc3[nH]nnc23)c(F)c1 [Example 120, 4-(((5-amino-3H-[1,2,3]triazolo[4,5-b]pyridin-7-yl)thio)methyl)-3-fluorobenzamide] |
| 60 to 200 | Cc1nn(C2CC2)c(C)c1CSc1cc(N)nc2[nH]nnc12 [Example 81, 7-(((1-cyclopropyl-3,5-dimethyl-1H-pyrazol-4-yl)methyl)thio)-3H-[1,2,3] triazolo[4,5-b]pyridin-5-amine] |
| 60 to 200 | Cn1nc(C2CC2)cc1CSc1cc(N)nc2[nH]nnc12 [Example 100, 7-(((3-cyclopropyl-1-methyl-1H-pyrazol-5-yl)methyl)thio)-3H-[1,2,3]triazolo[4,5-b]pyridin-5-amine] |
| ≤ 60 | Nc1cc(SCc2c(Cl)cccc2S(N)(=O)=O)c2nn[nH]c2n1 [Example 64, 2-(((5-amino-3H-[1,2,3]triazolo[4,5-b]pyridin-7-yl)thio)methyl)-3-chlorobenzenesulfonamide] |
| 200 to 1000 | Cn1ncc(CSc2nc(N)nc3[nH]nnc23)c1C(F)(F)F [Example 163, 7-(((1-methyl-5-(trifluoromethyl)-1H-pyrazol-4-yl)methyl)thio)-3H-[1,2,3]triazolo[4,5-d] pyrimidin-5-amine] |
| 200 to 1000 | CN(C)c1cccc(-n2cc(CSc3cc(N)nc4[nH]nnc34)c(C(F)(F)F)n2)n1 [Example 140, 7-(((1-(6-(dimethylamino)pyridin-2-yl)-3-(trifluoromethyl)-1H-pyrazol-4-yl)methyl)thio)-3H-[1,2,3]triazolo [4,5-b]pyridin-5-amine] |
| 60 to 200 | Cc1nn(-c2ccccc2)nc1CSc1cc(N)nc2[nH]nnc12 [Example 65, 7-(((5-methyl-2-phenyl-2H-1,2,3-triazol-4-yl)methyl)thio)-3H-[1,2,3]triazolo[4,5-b]pyridin-5-amine] |
| 60 to 200 | CC(Sc1cc(N)nc2[nH]nnc12)c1cccnc1 (stereo not shown) [Example 107, 7-((1-(pyridin-3-yl)ethyl)thio)-3H-[1,2,3]triazolo[4,5-b]pyridin-5-amine] |
| 60 to 200 | Nc1nc(SCc2ccccc2)c2nn[nH]c2n1 [Example 155, 7-(benzylthio)-3H-[1,2,3] triazolo[4,5-d]pyrimidin-5-amine] |
| 60 to 200 | Nc1cc(SCc2ccc(S(N)(=O)=O)cc2Cl)c2nn[nH]c2n1 [Example 119, 4-(((5-amino-3H-[1,2,3]triazolo[4,5-b]pyridin-7-yl)thio)methyl)-3-chlorobenzenesulfonamide] |
| 60 to 200 | N#Cc1cccc(F)c1CSc1nc(N)nc2[nH]nnc12 [Example 154, 2-(((5-Amino-3H-[1,2,3]triazolo[4,5-d]pyrimidin-7-yl)thio)methyl)-3-fluorobenzonitrile] |
| 60 to 200 | Nc1cc(SCc2ccccc2CN2CCCCC2)c2nn[nH]c2n1 [Example 97, 7-((2-(piperidin-1-ylmethyl)benzyl)thio)-3H-[1,2,3] triazolo[4,5-b]pyridin-5-amine] |
| 60 to 200 | CS(=O)(=O)c1ccc(F)cc1CSc1cc(N)nc2[nH]nnc12 [Example 53, 7-((5-fluoro-2-(methylsulfonyl)benzyl)thio)-3H-[1,2,3]triazolo[4,5-b]pyridin-5-amine] |
| 60 to 200 | Nc1cc(SC(CNCc2ccccc2)c2ccccc2)c2nn[nH]c2n1 (stereo not shown) [Example 128, 7-((2-(Benzylamino)-1-phenylethyl)thio)-3H-[1,2,3]triazolo[4,5-b]pyridin-5-amine] |
| 60 to 200 | Nc1cc(SCc2c(Cl)ccnc2Cl)c2nn[nH]c2n1 [Example 48, 7-(((2,4-dichloropyridin-3-yl)methyl)thio)-3H-[1,2,3] triazolo[4,5-b]pyridin-5-amine] |
| 60 to 200 | CC(Sc1cc(N)nc2[nH]nnc12)c1ccccc1S(C)(=O)=O (stereo not shown) [Example 54, 7-((1-(2-(methylsulfonyl)phenyl)ethyl)thio)-3H-[1,2,3]triazolo[4,5-b]pyridin-5-amine] |
| 200 to 1000 | Nc1cc(SCc2cn(-c3ccnnc3)nc2C(F)F)c2nn[nH]c2n1 [Example 143] |
| 60 to 200 | CN(C)CCNC(=O)c1cccc(-n2cc(CSc3cc(N)nc4[nH]nnc34)c(C(F)F)n2)c1 [Example 149, 3-(4-(((5-amino-3H-[1,2,3]triazolo[4,5-b]pyridin-7-yl)thio)methyl)-3-(difluoromethyl)-1H-pyrazol-1-yl)-N-(2-(dimethylamino)ethyl) benzamide] |
| 200 to 1000 | N#Cc1cccc(-n2cccn2)c1CSc1cc(N)nc2[nH]nnc12 [Example 129, 2-(((5-Amino-3H-[1,2,3]triazolo[4,5-b]pyridin-7-yl)thio)methyl)-3-(1H-pyrazol-1-yl)benzonitrile] |
| 200 to 1000 | Nc1nc(SCc2ccccc2-n2cccn2)c2nn[nH]c2n1 [Example 158, 7-((2-(1H-pyrazol-1-yl)benzyl)thio)-3H-[1,2,3] triazolo[4,5-d]pyrimidin-5-amine] |
| 60 to 200 | N#Cc1ncccc1CSc1cc(N)nc2[nH]nnc12 [Example 108, 3-(((5-amino-3H-[1,2,3]triazolo[4,5-b]pyridin-7-yl)thio)methyl)picolinonitrile] |
